US11566007B2, “Ras inhibitors” (Revolution Medicines, Inc., priority 2019, dated 2023)
Read-outs that look alike come from different tables or passages of the source.

What was measured:
[1] = test system: NCI-H358 (K-Ras G12C); experiment: CellTiter-Glo cell viability assay, NCI-H358; type: cell-based, human; conditions: NCI-H358, 5-day treatment, class symbols, read-out: Additional H358 Cell Viability assay data (K-Ras G12C, IC50)
Experimental: Note—The following protocol describes a procedure for monitoring cell viability of K-Ras mutant cancer cell lines in response to a compound of the invention. Other RAS isoforms may be employed, though the number of cells to be seeded will vary based on cell line used.
Test compounds (132.5 nL) were directly dispensed into the assay plates containing cells. […] On day 5, assay plates and their contents were equilibrated to room temperature for approximately 30 minutes. […] Luminescence was measured using the PerkinElmer Enspire. Data were normalized by the following: (Sample signal/Avg. DMSO)*100. The data were fit using a four-parameter logistic fit.

[2] = test system: NCI-H358 cells (K-Ras G12C); experiment: Potency assay: pERK in NCI-H358 cells; type: cell-based, human; conditions: H358 KRAS G12C, read-out: pERK EC50
Experimental: The purpose of this assay is to measure the ability of test compounds to inhibit K-Ras in cells. […] This procedure measures a decrease in cellular pERK in response to test compounds.
NCI-H358 cells were grown and maintained using media and procedures recommended by the ATCC. On the day prior to compound addition, cells were plated in 384-well cell culture plates (40 μl/well) and grown overnight in a 37° C., 5% CO2 incubator. Test compounds were prepared in 10, 3-fold dilutions in DMSO, with a high concentration of 10 mM. On the day of assay, 40 nL of test compound was added to each well of cell culture plate using an Echo550 liquid handler (LabCyte®). Concentrations of test compound were tested in duplicate. After compound addition, cells were incubated 4 hours at 37° C., 5% CO2. Following incubation, culture medium was removed and cells were washed once with phosphate buffered saline.
In some experiments, cellular pERK level was determined using the AlphaLISA SureFire Ultra p-ERK1/2 Assay Kit (PerkinElmer). Cells were lysed in 25 μL lysis buffer, with shaking at 600 RPM at room temperature. […] After a 2-hour incubation in the dark, 5 μL donor mix was added, plate was sealed, and incubated 2 hours at room temperature. Signal was read on an Envision plate reader (PerkinElmer) using standard AlphaLISA settings. Analysis of raw data was carried out in Excel (Microsoft) and Prism (GraphPad). Signal was plotted vs. the decadal logarithm of compound concentration, and IC50 was determined by fitting a 4-parameter sigmoidal concentration response model.
In other experiments, cellular pERK was determined by In-Cell Western. […] Fixed cells were washed 4 times for 5 minutes with TBS containing 0.1% Triton X-100 (TBST) and then blocked with 100 μL Odyssey blocking buffer (LI-COR) for 60 minutes at room temperature. […] Cells were washed 4 times for 5 minutes with TBST. Secondary antibody (IR-800CW rabbit, LI-COR, diluted 1:800) and DNA stain DRAQS (LI-COR, diluted 1:2000) were added and incubated 1-2 hours at room temperature. Cells were washed 4 times for 5 minutes with TBST. Plates were scanned on a Li-COR Odyssey CLx Imager. Analysis of raw data was carried out in Excel (Microsoft) and Prism (Graph Pad). Signal was plotted vs. the decadal logarithm of compound concentration, and IC50 was determined by fitting a 4-parameter sigmoidal concentration response model.

[3] = target: KRAS G12S (Homo sapiens (Human), UniProt P01116+P62937, G12S); experiment: Ras-Raf (BRAF RBD) disruption / FRET / MOA assay, KRAS G12S; type: biochemical; conditions: Ras-Raf disruption/FRET/MOA assay; class symbols; read-out: KRAS G12S FRET data IC50
Sequence of KRAS G12S (P01116-2 other isoform, or with tags, fused parts or gaps G12S): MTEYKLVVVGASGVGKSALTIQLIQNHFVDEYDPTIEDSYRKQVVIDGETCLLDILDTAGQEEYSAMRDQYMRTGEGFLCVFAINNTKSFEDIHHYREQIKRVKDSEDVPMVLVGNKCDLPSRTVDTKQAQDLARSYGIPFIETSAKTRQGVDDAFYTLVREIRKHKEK
Sequence of KRAS G12S (P62937 whole entry): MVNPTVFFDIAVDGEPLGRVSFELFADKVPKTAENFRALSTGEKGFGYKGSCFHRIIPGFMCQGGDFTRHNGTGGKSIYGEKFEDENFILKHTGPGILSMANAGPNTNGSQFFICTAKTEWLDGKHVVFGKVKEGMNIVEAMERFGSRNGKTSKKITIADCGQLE
Procedure, shortened: (§1)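 Ternary complex formation (Ras–compound–cyclophilin A) displacing BRAF RBD, monitored by TR-FRET. Three hours at 25° C with compound (top 30 μM final), then 1.5 h with the labelled antibodies. Lower ratio than DMSO indicates disruption; IC50 reported.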

[4] = target: KRAS G12D (Homo sapiens (Human), UniProt P01116+P62937, G12D); experiment: Ras-Raf (BRAF RBD) disruption / FRET / MOA assay, KRAS G12D; type: biochemical; conditions: Ras-Raf disruption/FRET/MOA assay; class symbols; read-out: KRAS G12D FRET data IC50
Sequence of KRAS G12D (P01116-2 other isoform, or with tags, fused parts or gaps G12D): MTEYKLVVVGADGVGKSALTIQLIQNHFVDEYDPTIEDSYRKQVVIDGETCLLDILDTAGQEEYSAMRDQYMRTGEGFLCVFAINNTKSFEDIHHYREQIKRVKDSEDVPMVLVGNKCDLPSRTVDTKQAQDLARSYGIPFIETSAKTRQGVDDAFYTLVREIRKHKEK
Sequence of KRAS G12D (P62937 whole entry): as the sequence (P62937 whole entry) above
Procedure, shortened: as §1

Row | SMILES | IC50 ([1]; Homo sapiens, NCI-H358, 120 h) [nM] | EC50 ([2]; Homo sapiens, NCI-H358) [nM] | further results
1 | C=CC(=O)N1CC[C@H](C(=O)N(C)[C@H](C(=O)N[C@H]2Cc3cccc(c3)-c3ccc4c(c3)c(c(-c3ccccc3CCOC)n4CC)CC(C)(C)COC(=O)[C@@H]3CCCN(N3)C2=O)C(C)C)C1 (atropisomer, axis not shown) [Example A24] | > 1000 | < 5000 | 
2 | C=CC(=O)N1CC[C@H](C(=O)N(C)[C@H](C(=O)N[C@H]2Cc3cc(O)cc(c3)-c3cc(F)c4c(c3)c(c(-c3ccccc3CCOC)n4CC)CC(C)(C)COC(=O)[C@@H]3CCCN(N3)C2=O)C(C)C)C1 (atropisomer, axis not shown) [Example A53] | 100 to 1000 | < 5000 | 
3 | CC#CC(=O)N1CC[C@H](C(=O)N(C)[C@@H](C(=O)N[C@H]2Cc3cc(O)cc(c3)-c3ccc4c(c3)c(c(-c3cccnc3[C@H](C)OC)n4CC)CC(C)(C)COC(=O)[C@@H]3CCCN(N3)C2=O)C(C)C)C1 (atropisomer, axis not shown) [Example A198] |  |  | IC50 [1]: > 1000 nM
4 | CC#CC(=O)N1CC[C@H](C(=O)N(C)[C@@H](C(=O)N[C@H]2Cc3cc(O)cc(c3)-c3ccc4c(c3)c(c(-c3cccnc3[C@H](C)OC)n4CC)CC(C)(C)COC(=O)[C@@H]3CCCN(N3)C2=O)C(C)C)C1 (atropisomer, axis not shown) [Example A199] |  |  | IC50 [1]: 100 to 1000 nM; EC50 [2]: < 5000 nM
5 | C=CC(=O)N1CC[C@H](C(=O)N(C)[C@H](C(=O)N[C@H]2Cc3cc(O)cc(c3)-c3ccc4c(c3)c(c(-c3cccnc3[C@H](C)OC)n4CC)CC(C)(C)COC(=O)[C@@H]3CCCN(N3)C2=O)C(C)C)C1 (atropisomer, axis not shown; (M)) [Example A75, (2S)-N-[(8S,14S,20M)-22-ethyl-4-hydroxy-21-{2-[(1S)-1-methoxyethyl]pyridin-3-yl}-18,18-dimethyl-9,15-dioxo-16-oxa-10,22,28-triazapentacyclo[18.5.2.1^2,^6.1^10,^14.0^23,^27]nonacosa-1(26),2,4,6(29),20,23(27),24-heptaen-8-yl]-3-methyl-2-{N-methyl-1-[(3S)-1-(prop-2-enoyl)pyrrolidin-3-yl]formamido}butanamide] | 10 to 100 | < 5000 | IC50 [1]: < 10 nM
6 | C=CC(=O)N1CC[C@H](C(=O)N(C)[C@H](C(=O)N[C@H]2Cc3cc(O)cc(c3)-c3ccc4c(c3)c(c(-c3ccc(CN5CC[C@@H](O)C5)cc3)n4CC)CC(C)(C)COC(=O)[C@@H]3CCCN(N3)C2=O)C(C)C)C1 [Example A1] | 100 to 1000 | < 5000 | 
7 | C=CC(=O)N1CC[C@H](C(=O)N(C)[C@H](C(=O)N[C@H]2Cc3cc(N)cc(c3)-c3ccc4c(c3)c(c(-c3ccccc3CCOC)n4CC)CC(C)(C)COC(=O)[C@@H]3CCCN(N3)C2=O)C(C)C)C1 [Example A2, (2S)-N-[(8S,14S)-4-amino-22-ethyl-21-[2-(2-methoxyethyl)phenyl]-18,18-dimethyl-9,15-dioxo-16-oxa-10,22,28-triazapentacyclo[18.5.2.1^2,^6.1^10,^14.0^23,^27]nonacosa-1(26),2,4,6(29),20,23(27),24-heptaen-8-yl]-3-methyl-2-{N-methyl-1-[(3S)-1-(prop-2-enoyl)pyrrolidin-3-yl]formamido}butanamide] | > 1000 | < 5000 | 
8 | C=CC(=O)N1CC[C@H](C(=O)N(C)[C@H](C(=O)N[C@H]2Cc3cc(O)cc(c3)-c3ccc4c(c3)c(c(-c3ccc(CN(C)C)cc3)n4CC)CC(C)(C)COC(=O)[C@@H]3CCCN(N3)C2=O)C(C)C)C1 [Example A3] | 100 to 1000 | < 5000 | 
9 | C=CC(=O)N1CC[C@H](C(=O)N(C)[C@H](C(=O)N[C@H]2Cc3cc(O)cc(c3)-c3ccc4c(c3)c(c(-c3ccccc3CN(C)C)n4CC)CC(C)(C)COC(=O)[C@@H]3CCCN(N3)C2=O)C(C)C)C1 [Example A5] | 10 to 100 | < 5000 | 
10 | C=CC(=O)N1CC[C@H](C(=O)N(C)[C@H](C(=O)N[C@H]2Cc3cc(O)cc(c3)-c3ccc4c(c3)c(c(-c3ccccc3CCOC)n4CC)CC(C)(C)COC(=O)[C@@H]3CCCN(N3)C2=O)C2CCOCC2)C1 [Example A6] | 100 to 1000 | < 5000 | 
11 | C=CC(=O)N1CC[C@H](C(=O)N(C)[C@H](C(=O)N[C@H]2Cc3cc(OC(=O)CCN4CCN(C)CC4)cc(c3)-c3ccc4c(c3)c(c(-c3ccccc3CCOC)n4CC)CC(C)(C)COC(=O)[C@@H]3CCCN(N3)C2=O)C(C)C)C1 [Example A7] | 100 to 1000 | < 5000 | 
12 | C=CC(=O)N1CC[C@H](C(=O)N(C)[C@H](C(=O)N[C@H]2Cc3cc(OC(=O)CN)cc(c3)-c3ccc4c(c3)c(c(-c3ccccc3CCOC)n4CC)CC(C)(C)COC(=O)[C@@H]3CCCN(N3)C2=O)C(C)C)C1 [Example A8] | 100 to 1000 | < 5000 | 
13 | C=CC(=O)N1CC[C@H](C(=O)N(C)[C@H](C(=O)N[C@H]2Cc3cc(cc(O)c3F)-c3ccc4c(c3)c(c(-c3ccccc3CCOC)n4CC)CC(C)(C)COC(=O)[C@@H]3CCCN(N3)C2=O)C(C)C)C1 [Example A9] | 100 to 1000 | < 5000 | 
14 | C=CC(=O)N1CC[C@H](C(=O)N(C)[C@H](C(=O)N[C@H]2Cc3cc(O)cc(c3)-c3ccc4c(c3)c(c(-c3ccc(CN5CCCC5)cc3)n4CC)CC(C)(C)COC(=O)[C@@H]3CCCN(N3)C2=O)C(C)C)C1 [Example A10] | 10 to 100 | < 5000 | 
15 | C=CC(=O)N1CCC(F)(C(=O)N(C)[C@H](C(=O)N[C@H]2Cc3cc(O)cc(c3)-c3ccc4c(c3)c(c(-c3ccccc3CCOC)n4CC)CC(C)(C)COC(=O)[C@@H]3CCCN(N3)C2=O)C(C)C)CC1 [Example A11] | 100 to 1000 | < 5000 | 
16 | C=CC(=O)N1CCCN(C(=O)N(C)[C@H](C(=O)N[C@H]2Cc3cc(O)cc(c3)-c3ccc4c(c3)c(c(-c3ccccc3CCOC)n4CC)CC(C)(C)COC(=O)[C@@H]3CCCN(N3)C2=O)C(C)C)CC1 [Example A13] | 100 to 1000 | < 5000 | 
17 | C=CC(=O)N1CCC(C(=O)N(C)[C@H](C(=O)N[C@H]2Cc3cc(O)cc(c3)-c3ccc4c(c3)c(c(-c3ccccc3CCOC)n4CC)CC(C)(C)COC(=O)[C@@H]3CCCN(N3)C2=O)C(C)C)CC1 [Example A14] | 100 to 1000 | < 5000 | 
18 | CCn1c(-c2ccccc2CN(C)C)c2c3cc(ccc31)-c1cc(O)cc(c1)C[C@H](NC(=O)[C@H](C(C)C)N(C)C(=O)c1ccc(NC(=O)/C=C/CN(C)C)cc1)C(=O)N1CCC[C@H](N1)C(=O)OCC(C)(C)C2 [Example A49] | > 1000 |  | 
19 | CCn1c(-c2cccnc2COC)c2c3cc(ccc31)-c1cc(O)cc(c1)C[C@H](NC(=O)[C@H](C(C)C)N(C)C(=O)[C@H]1CCN(C(=O)/C=C/CN3CCN(C)CC3)C1)C(=O)N1CCC[C@H](N1)C(=O)OCC(C)(C)C2 [Example A72] | > 1000 |  | 
20 | CCn1c(-c2cnccc2COC)c2c3cc(ccc31)-c1cc(O)cc(c1)C[C@H](NC(=O)[C@H](C(C)C)N(C)C(=O)[C@H]1CCN(C(=O)C#CCN(C)C)C1)C(=O)N1CCC[C@H](N1)C(=O)OCC(C)(C)C2 [Example A88] |  | < 5000 | 
21 | CCn1c(-c2ccccc2CN(C)C)c2c3cc(ccc31)-c1cc(O)cc(c1)C[C@H](NC(=O)[C@H](C(C)C)N(C)C(=O)c1nc(NC(=O)/C=C/CN(C)C)cs1)C(=O)N1CCC[C@H](N1)C(=O)OCC(C)(C)C2 [Example A90] | > 1000 |  | 
22 | C=CC(=O)N1CC[C@H](C(=O)N(C)[C@H](C(=O)NC2C[C@@H]3CN(CCO3)c3ccc4c(c3)c(c(-c3cccnc3COC)n4CC)CC(C)(C)COC(=O)[C@@H]3CCCN(N3)C2=O)C(C)C)C1 (some centres unmarked) [Example A318] |  |  | IC50 [3]: > 10000 nM; IC50 [1]: > 1000 nM; IC50 [4]: > 10000 nM
